The values that follow come from patent publication EP2540163A1, “Nematocide N-cyclopropyl-sulfonylamide derivatives” (Bayer CropScience AG, priority 2011, dated 2013).

Broadly, the chromatographic logP is lipophilicity estimated from chromatographic retention. Low values mean a more hydrophilic compound, high ones a more lipophilic compound.

One data set is described as follows: logP by HPLC on reversed-phase column (C 18), EEC Directive 79/831 Annex V.A8, Method B (0.1% aqueous formic acid / acetonitrile, 40°C). In kind it is physicochemical. Conditions: c18 reversed-phase hplc; LogP method B: HPLC reversed-phase C 18, 40°C, 0.1% aqueous formic acid / acetonitrile. How it is done:
Calibration was carried out using unbranched alkan-2-ones (having 3 to 16 carbon atoms) with known logP values (determination of the logP values by the retention times using linear interpolation between two successive alkanones).
In turn, `CCc1nn(C)c(F)c1C(=O)N(C1CC1)S(=O)(=O)c1cc(C(F)(F)F)ccc1Cl` [compound 384] displayed a chromatographic logP of 3.5.

With `CCOc1nn(C)cc1C(=O)N(C1CC1)S(=O)(=O)c1ccc(Oc2ccc(OC)cc2)c(Cl)c1` [compound 531], the chromatographic logP is 3.8.

As to `CCOc1nn(C)cc1C(=O)N(C1CC1)S(=O)(=O)c1ccc(Oc2ccc(Br)c(Cl)c2)c(Cl)c1` [compound 558], the chromatographic logP was determined as 4.9.

For the compound `CCc1nn(C)c(F)c1C(=O)N(C1CC1)S(=O)(=O)c1cnc(Cl)c(Br)c1` [compound 448], the chromatographic logP was found to be 3.5.

On to `CCOc1nn(C)cc1C(=O)N(C1CC1)S(=O)(=O)c1ccc(Oc2cccc(Br)c2)c(Cl)c1` [compound 551], for which the chromatographic logP is 4.5.

In turn, `Cc1cc(C(=O)N(C2CC2)S(=O)(=O)c2cccc(Cl)c2Cl)nn1C` [compound 74] had a chromatographic logP of 2.7.

`COc1nn(C)c(Cl)c1C(=O)N(C1CC1)S(=O)(=O)c1ccc(Oc2ccccc2)cc1` [compound 280]: the chromatographic logP was 3.8.

The compound `Cn1nc(C(F)(F)F)c(C(=O)N(C2CC2)S(=O)(=O)c2c(Cl)cccc2Cl)c1F` [compound 360] returned a chromatographic logP of 3.1.

Compound `Cc1oncc1C(=O)N(C1CC1)S(=O)(=O)c1cccc(Cl)c1Cl` [compound 603] returned a chromatographic logP of 2.2.

Take `Cn1cc(C(=O)N(C2CC2)S(=O)(=O)c2ccc(Cl)c(Cl)c2Cl)c(C(F)(F)F)c1` [compound 37]: the chromatographic logP amounted to 3.9.

`CCCCCc1ccc(Oc2ccc(S(=O)(=O)N(C(=O)c3cn(C)nc3OCC)C3CC3)c(Cl)c2)cc1` [compound 560] had a chromatographic logP of 5.6.

With `CCc1nn(C)c(F)c1C(=O)N(C1CC1)S(=O)(=O)c1cc(Cl)cc(Cl)c1` [compound 376], the chromatographic logP worked out at 3.9.

On to `Cn1nc(C(F)F)c(C(=O)N(C2CC2)S(=O)(=O)c2cccc(Cl)c2Cl)c1F` [compound 104], for which the chromatographic logP is 3.2.

In turn, `Cc1nocc1C(=O)N(C1CC1)S(=O)(=O)c1ccc(Cl)c(Cl)c1Cl` [compound 600] displayed a chromatographic logP of 3.6.

`Cc1cnn(C)c1C(=O)N(C1CC1)S(=O)(=O)c1cccc(Cl)c1Cl` [compound 658] yielded a chromatographic logP of 3.1.

`O=C(c1cccnc1Cl)N(C1CC1)S(=O)(=O)c1cccc(Cl)c1Cl` [compound 645] displayed a chromatographic logP of 3.2.

As to `CCOc1nn(C)cc1C(=O)N(C1CC1)S(=O)(=O)c1ccc(Oc2ccc(Br)cc2)c(Cl)c1` [compound 552], the chromatographic logP stood at 4.5.

On to `CCOc1nn(C)cc1C(=O)N(C1CC1)S(=O)(=O)c1ccc(Oc2ccccc2)c(Cl)c1` [compound 533], for which the chromatographic logP stood at 3.9.

As for `COc1nn(C)cc1C(=O)N(C1CC1)S(=O)(=O)c1ccc(Oc2ccc(Cl)cc2Cl)cc1Br` [compound 477], the chromatographic logP turned out to be 4.1.

`Cn1ncc(I)c1C(=O)N(C1CC1)S(=O)(=O)c1ccc(Cl)c(Cl)c1Cl` [compound 663] returned a chromatographic logP of 3.4.

`Cc1cnn(C)c1C(=O)N(C1CC1)S(=O)(=O)c1ccc(Cl)c(Cl)c1Cl` [compound 659] registered a chromatographic logP of 3.6.

`COc1nn(C)c(Cl)c1C(=O)N(C1CC1)S(=O)(=O)c1ccc(Oc2ccc(Br)cc2)cc1` [compound 284] came in with a chromatographic logP of 4.3.

As to `COc1nn(C)cc1C(=O)N(C1CC1)S(=O)(=O)c1c(C)nn(C)c1Cl` [compound 444], the chromatographic logP came out at 1.7.

As to `COc1nn(C)cc1C(=O)N(C1CC1)S(=O)(=O)c1cnc(Cl)c(Br)c1` [compound 449], the chromatographic logP is 2.

For the compound `CCOc1nn(C)cc1C(=O)N(C1CC1)S(=O)(=O)c1ccc(Oc2ccc(C)nc2)cc1Cl` [compound 525], the chromatographic logP was 2.2.

Take `Cc1oncc1C(=O)N(C1CC1)S(=O)(=O)c1ccc(Cl)c(Cl)c1Cl` [compound 604]: the chromatographic logP is 2.6.

As for `Cc1nn(C)c(C(=O)N(C2CC2)S(=O)(=O)c2cccc(Cl)c2Cl)c1Cl` [compound 586], the chromatographic logP is 3.7.

Turning to `Cc1cc(C(=O)N(C2CC2)S(=O)(=O)c2ccc(Cl)c(Cl)c2Cl)nn1C` [compound 75], the chromatographic logP is 3.3.

Compound `COc1nn(C)cc1C(=O)N(C1CC1)S(=O)(=O)c1c(Cl)cc(C(F)(F)F)cc1Cl` [compound 396] came in with a chromatographic logP of 3.

On to `Cc1nn(C)c(Cl)c1S(=O)(=O)N(C(=O)c1c(C(F)(F)F)nn(C)c1F)C1CC1` [compound 443], for which the chromatographic logP is 2.6.

With `CCCOc1nn(C)cc1C(=O)N(C1CC1)S(=O)(=O)c1ccc(Oc2cc(Cl)cc(Cl)c2)cc1Br` [compound 305], the chromatographic logP came to 5.1.

With `Cc1nn(C)c(Oc2ccc(Cl)cc2)c1C(=O)N(C1CC1)S(=O)(=O)c1ccccc1Cl` [compound 261], the chromatographic logP stood at 3.6.

Regarding `CCOc1nn(C)cc1C(=O)N(C1CC1)S(=O)(=O)c1ccc(Oc2cccc(N(C)C)c2)cc1Cl` [compound 532], the chromatographic logP is 3.8.

Compound `Cc1cc(Cl)cc(Cl)c1S(=O)(=O)N(C(=O)c1c(C(F)(F)F)nn(C)c1F)C1CC1` [compound 367] showed a chromatographic logP of 2.6.

As to `CCOc1nn(C)cc1C(=O)N(C1CC1)S(=O)(=O)c1ccc(Oc2ccc(C(F)(F)F)cc2)cc1Cl` [compound 538], the chromatographic logP was determined as 4.1.

In the case of `O=C(c1ccsc1I)N(C1CC1)S(=O)(=O)c1cccc(Cl)c1Cl` [compound 19], the chromatographic logP is 3.8.

In turn, `Cn1nc(C(F)(F)F)c(C(=O)N(C2CC2)S(=O)(=O)c2cccc(Cl)c2Cl)c1F` [compound 357] gave a chromatographic logP of 3.3.

The compound `O=C(c1cccnc1Cl)N(C1CC1)S(=O)(=O)c1ccc(Oc2ccccc2)cc1` [compound 646] yielded a chromatographic logP of 3.7.

`COc1cscc1C(=O)N(C1CC1)S(=O)(=O)c1ccc(Cl)c(Cl)c1Cl` [compound 27] returned a chromatographic logP of 3.9.

`CCOc1nn(C)cc1C(=O)N(C1CC1)S(=O)(=O)c1ccc(Oc2cccc(C(F)(F)F)c2)c(Cl)c1` [compound 549] returned a chromatographic logP of 4.4.

Compound `COc1nn(C)cc1C(=O)N(C1CC1)S(=O)(=O)c1ccc(Oc2ccc(Cl)c(Cl)c2)cc1Br` [compound 478] had a chromatographic logP of 4.2.

`O=C(c1cccnc1F)N(C1CC1)S(=O)(=O)c1cccc(Cl)c1Cl` [compound 649] yielded a chromatographic logP of 2.4.

For the compound `Cc1nn(C)c(C#N)c1C(=O)N(C1CC1)S(=O)(=O)c1ccc(Cl)c(Cl)c1Cl` [compound 228], the chromatographic logP is 3.9.

`CCOc1nn(C)cc1C(=O)N(C1CC1)S(=O)(=O)c1ccc(Oc2ccc(C(F)(F)F)cc2)c(Cl)c1` [compound 550] gave a chromatographic logP of 4.4.

`Cn1cc(C(=O)N(C2CC2)S(=O)(=O)c2cccc(Cl)c2Cl)c(C(F)(F)F)c1` [compound 36] yielded a chromatographic logP of 3.3.

In the case of `COc1nn(C)cc1C(=O)N(C1CC1)S(=O)(=O)c1c(Cl)cc(Cl)cc1Cl` [compound 461], the chromatographic logP was 2.7.

The compound `COc1cscc1C(=O)N(C1CC1)S(=O)(=O)c1cccc(Cl)c1Cl` [compound 25] gave a chromatographic logP of 3.3.

The compound `Cn1nc(C(F)(F)F)c(C(=O)N(C2CC2)S(=O)(=O)c2cc(Cl)c(Cl)cc2Cl)c1F` [compound 361] yielded a chromatographic logP of 4.

Compound `CCOc1nn(C)cc1C(=O)N(C1CC1)S(=O)(=O)c1ccc(Oc2ccccc2Cl)c(Cl)c1` [compound 537] gave a chromatographic logP of 4.1.

Compound `CCOc1nn(C)cc1C(=O)N(C1CC1)S(=O)(=O)c1ccc(Oc2ccc(Cl)cc2)c(Cl)c1` [compound 545] registered a chromatographic logP of 4.3.

`Cn1nc(-c2ccccc2)c(C(=O)N(C2CC2)S(=O)(=O)c2cccc(Cl)c2Cl)c1F` [compound 101] displayed a chromatographic logP of 3.7.

As for `CCOc1nn(C)cc1C(=O)N(C1CC1)S(=O)(=O)c1ccc(Oc2cccc(C(F)(F)F)c2F)c(Cl)c1` [compound 547], the chromatographic logP stood at 4.3.

Compound `CCc1nn(C)c(F)c1C(=O)N(C1CC1)S(=O)(=O)c1c(Cl)sc(Cl)c1Br` [compound 437] returned a chromatographic logP of 3.8.

In the case of `Cn1nc(C(F)(F)F)c(C(=O)N(C2CC2)S(=O)(=O)c2c(Cl)sc(Cl)c2Br)c1F` [compound 436], the chromatographic logP amounted to 3.9.

In the case of `CCOc1nn(C)cc1C(=O)N(C1CC1)S(=O)(=O)c1ccc(Oc2ccc(Cl)cc2Cl)cc1Cl` [compound 543], the chromatographic logP stood at 4.3.

The compound `Cn1nc(C2CC2)c(C(=O)N(C2CC2)S(=O)(=O)c2ccc(Cl)c(Cl)c2Cl)c1Cl` [compound 223] yielded a chromatographic logP of 4.2.

Compound `Cn1nc(C2CC2)c(C(=O)N(C2CC2)S(=O)(=O)c2cccc(Cl)c2Cl)c1Cl` [compound 225] had a chromatographic logP of 4.7.

The compound `Cc1cc(C(=O)N(C2CC2)S(=O)(=O)c2cccc(Cl)c2Cl)c(C)o1` [compound 5] registered a chromatographic logP of 3.8.

`CC(C)c1nn(C)c(F)c1C(=O)N(C1CC1)S(=O)(=O)c1ccc(C(F)(F)F)cc1Cl` [compound 97] showed a chromatographic logP of 4.

With `Cc1nn(C)c(N(C)C)c1C(=O)N(C1CC1)S(=O)(=O)c1ccc(Cl)c(Cl)c1Cl` [compound 229], the chromatographic logP was 3.6.

As to `COc1nn(C)cc1C(=O)N(C1CC1)S(=O)(=O)c1csc(Cl)c1Cl` [compound 440], the chromatographic logP was determined as 3.1.

The compound `COc1nn(C)c(Cl)c1C(=O)N(C1CC1)S(=O)(=O)c1cccc(Cl)c1Cl` [compound 278] showed a chromatographic logP of 3.2.

In turn, `CCCOc1nn(C)cc1C(=O)N(C1CC1)S(=O)(=O)c1ccc(Oc2ccc(Br)c(Cl)c2)cc1Br` [compound 304] had a chromatographic logP of 5.

The compound `CCOc1nn(C)cc1C(=O)N(C1CC1)S(=O)(=O)c1ccc(Oc2ccc(Br)c(Cl)c2)cc1Cl` [compound 544] returned a chromatographic logP of 4.3.

The data set is the same for the next values; noted with them: c18 reversed-phase hplc; LogP method B: HPLC, 40°C, 0.1% aqueous formic acid and acetonitrile, gradient 10% to 90% acetonitrile.
The compound `COC(=O)C1(N(C(=O)c2c(C(F)(F)F)nn(C)c2F)S(=O)(=O)c2ccc(Cl)c(Cl)c2Cl)CC1` [compound 667] showed a chromatographic logP of 4.04.

`Cc1nn(C)c(F)c1C(=O)N(C1(c2ccccc2)CC1)S(=O)(=O)c1cccc(Cl)c1Cl` [compound 670] came in with a chromatographic logP of 4.1.
